Experiments:
Type in all cases: cell-based, human
[1] = test system: SSX-2 specific CD4^+ T cells (clone 2C3); experiment: IFN-γ secretion (ELISA) by SSX-2 specific CD4+ T cell clone in response to extended or truncated peptides; conditions: for peptide recognition relative to SEQ ID NO:1 (IFN-γ secretion): clone 2C3, EBV LAU 149 as APC, serial peptide dilutions, ELISA after 24 hrs
Description: FIG. 2 depicts determination of the minimal sequence optimally recognized by SSX-2 specific CD4^+ T cells. Synthetic peptides extended or truncated at the SSX-213-34 N- or C-terminus were used to determine the minimal length of the epitope recognized by SSX-2 specific CD4^+ T cells. Serial dilutions of each peptide were incubated with EBV LAU 149 and SSX-2 specific CD4^+ T cells. IFN-γ secretion was determined by ELISA in the culture supernatant after 24 hrs of culture. The peptides tested were: […] (SSX-213-34; SEQ ID NO:1); […] (SSX-213-36; SEQ ID NO:2); […] (SSX-213-32; SEQ ID NO:3); VGAQIPEKIQKAFDDIAK (SSX-213-30; SEQ ID NO:4); IPEKIQKAFDDIAKYFSK (SSX-217-34; SEQ ID NO:5); EKIQKAFDDIAKYFSK (SSX-219-34; SEQ ID NO:6); IQKAFDDIAKYFSK (SSX-221-34; SEQ ID NO:7) and […] (SSX-261-82; SEQ ID NO:30).
(§1) For intracellular cytokine secretion detection T cells were incubated with APC at a 1:1 T cells:APC ratio during 4-6 h in the absence or in the presence of peptides at the indicated dose. One hour after the beginning of the incubation Brefeldin A (20 μg/ml, Sigma Chemical Co., Steinheim, Germany) was added to inhibit cytokine secretion. At the end of the incubation period cells were stained with anti-CD4 mAb for 20 min at 4° C. and fixed. Cells were then permeabilized using saponine (Sigma, 0.1% in PBS 10% FCS) stained by incubation with mAb against IFN-γ or IL-2 (BD, Pharmingen) and analyzed by flow cytometry. Data analysis was performed using Cell Quest software. For detection of cytokine secretion in the culture supernatant T cells (10,000) were incubated with stimulating cells (15,000/well) in 96-well round-bottom plates in 200 μl/well of IMDM containing 10% human serum and 20 U/ml hrIL2. After 24 h incubation at 37° C., culture supernatants were collected and the content of IFN-γ determined by ELISA (BioSource Europe, Fleurus, Belgium). IFN-γ ELISPOT assay was performed as described previously (Ayyoub M. et al, 2002, J Immunol 32:2292-2299) using nitrocellulose-lined 96-well microplates (MAHA S45: Millipore, Bedford, Mass.) and an IFN-γ ELISPOT kit (DIACLONE, Besancon, France). Stimulator cells (5×10^4/well) were added together with the indicated number of T cells and peptide (2 μM) where indicated. Spots were counted using a stereomicroscope with a magnification of ×15.
To more precisely define the SSX-2-derived peptide optimally recognized by specific CD4^+ T cells from patient 672, we analyzed the relative capacity of peptide SEQ ID to NO:1 extended or truncated variants to stimulate IFN-γ secretion by specific clonal T cells (clone 2C3). […] Similar results were obtained using another CD4^+ T cell clone (not shown).

[2] = test system: SSX-2 specific CD4^+ T cells; experiment: Presentation of peptide SSX-2 13-34 by APC bearing different HLA-DP alleles (intracellular IFN-γ secretion); conditions: healthy donors (Caucasian); not shown
Description: FIG. 3A: Intracellular IFN-γ secretion by SSX-2 specific CD4+ T cells (clone 3C8) upon stimulation with peptide SSX-213-34 was assessed both in the absence and in the presence of anti HLA-DR, -DP or -DQ antibodies. FIG. 3B: The ability of APC bearing different HLA-DP alleles to present peptide SSX-2 13-34 to specific CD4^+ T cells was assessed by intracellular IFN-γ secretion.
Molecular typing of HLA-DP molecules, construction of plasmids and transient transfection. […]
(§2) For intracellular cytokine secretion detection T cells were incubated with APC at a 1:1 T cells:APC ratio during 4-6 h in the absence or in the presence of peptides at the indicated dose. […] Cells were then permeabilized using saponine (Sigma, 0.1% in PBS 10% FCS) stained by incubation with mAb against IFN-γ or IL-2 (BD, Pharmingen) and analyzed by flow cytometry. […] After 24 h incubation at 37° C., culture supernatants were collected and the content of IFN-γ determined by ELISA (BioSource Europe, Fleurus, Belgium). […] Spots were counted using a stereomicroscope with a magnification of ×15. […]

[3] = test system: SSX-2 specific CD4^+ T cells; experiment: Presentation of exogenously added peptide by melanoma cell lines to specific CD4+ T cell clones (ELISPOT); conditions: two lines, Me 260 and T465A
Description: FIGS. 4A and 4B show the lack of tumor recognition by SSX-2 13-34 specific CD4^+ T cells. FIG. 4A: Recognition of Me 260 cells by CD4+ T cells was tested by ELISPOT in the absence or in the presence of exogeneously added peptide SSX-213-34. Where indicated, cells were treated with IFN-γ during 48 hr. FIG. 4B: Recognition of T465A was assessed as in […] as well as upon transfection with an SSX-2 encoding plasmid. The CD8+ T cell clone B3.4 specific for peptide SSX-2 41-49 was used as an internal control.
For intracellular cytokine secretion detection T cells were incubated with APC at a 1:1 T cells:APC ratio during 4-6 h in the absence or in the presence of peptides at the indicated dose. One hour after the beginning of the incubation Brefeldin A (20 μg/ml, Sigma Chemical Co., Steinheim, Germany) was added to inhibit cytokine secretion. At the end of the incubation period cells were stained with anti-CD4 mAb for 20 min at 4° C. and fixed. Cells were then permeabilized using saponine (Sigma, 0.1% in PBS 10% FCS) stained by incubation with mAb against IFN-γ or IL-2 (BD, Pharmingen) and analyzed by flow cytometry. Data analysis was performed using Cell Quest software. […] After 24 h incubation at 37° C., culture supernatants were collected and the content of IFN-γ determined by ELISA (BioSource Europe, Fleurus, Belgium). […] Spots were counted using a stereomicroscope with a magnification of ×15. […]

CD4^+ T cells = experiment: Intracellular IFN-γ / IL-2 staining of peptide-stimulated CD4+ T cell cultures from melanoma patients; conditions: culture from patient 672; not shown
Description: FIGS. 1A and 1B show detection of SSX-2 specific CD4^+ T cells in peptide stimulated cultures. The presence of specific CD4^+ T cells in the culture from patient 672 was assessed by intracellular staining with anti-IFN-γ (FIG. 1A, left panels) or anti-IL-2 antibodies (FIG. 1A, right panels) after stimulation with autologous PBMC alone (upper panels) or with the peptide submixture P1-3 (containing SSX-2 peptides 1-22, 13-34, 25-46). Numbers in upper right quadrants are percent of cytokine producing cells among CD4^+ T cells.
In vitro sensitization of CD4^+ T cells was carried out as described previously for CD8^+ T cells. […]
as §2

[4] = test system: SSX-2 13-34 specific CD4^+ T cell clone 3C8; experiment: Processing of soluble recombinant protein by professional APC and presentation to specific CD4+ T cells (ELISPOT)
Description: FIG. 5A: The ability of EBV LAU 149 to process the SSX-2 protein and present the relevant epitope to specific CD4+ T cells was assessed by ELISPOT after 12 hrs incubation with soluble recombinant SSX-2 protein followed by washing. NY-ESO-1 protein was used as an internal control. FIGS. 5B and 5C: Processing and presentation of the SSX-2 CD4^+ T cell epitope by LAU 672 autologous monocyte-derived DC was assessed as in FIG. 5A.
as §1
We then assessed the ability of professional APC to process the SSX-2 antigen and present the SSX-2 13-34 epitope to specific CD4^+ T cells.

[5] = test system: clonal CD8^+ T cells (clone B3.4); experiment: Processing of exogenous SSX-2 protein by professional APC and recognition by SSX-2 41-49 specific CD8+ T cells; conditions: EBV and DC as APC

Molecule: IQKAFDDIAKYFSK (listed as Homo sapiens) [SEQ ID NO:7]
- reduction of peptide activity ([1]; relative to SEQ ID NO:1, clone 2C3, IFN-γ ELISA): 10 fold

Molecule: IPEKIQKAFDDIAKYFSK (listed as Homo sapiens) [SEQ ID NO:5]
- peptide recognition relative to SEQ ID NO:1 (IFN-γ secretion) [1]: did not significantly affect recognition

Molecule: EKIQKAFDDIAKYFSK (listed as Homo sapiens) [SEQ ID NO:6]
- peptide recognition relative to SEQ ID NO:1 (IFN-γ secretion) [1]: did not significantly affect recognition
- epitope mapping: minimal peptide among analyzed peptides ([1]; clone 2C3, similar results with another CD4+ T cell clone): minimal peptide optimally recognized

Molecule: VGAQIPEKIQKAFDDIAKYFSK (listed as Homo sapiens) [SEQ ID NO:1]
- PBMC from healthy donors able to present the epitope to CD4^+ T cells [2]: 3 out of 14
- presentation of peptide by melanoma cell lines to specific T cell clones [3]: efficiently presented
- reactivity of the culture to single peptides in the submixture P1-3 (CD4^+ T cells): active peptide

B1: SSX-2 protein: soluble recombinant SSX-2 protein given to APC (protein, UniProt Q16385 1-188, looked up)
Protein SSX2: MNGDDAFARRPTVGAQIPEKIQKAFDDIAKYFSKEEWEKMKASEKIFYVYMKRKYEAMTKLGFKATLPPFMCNKRAEDFQGNDLDNDPNRGNQVERPQMTFGRLQGISPKIMPKKPAEEGNDSEEVPEASGPQNDGKELCPPGKPTTSEKIHERSGPKRGEHAWTHRLRERKQLVIYEEISDPEEDDE
- processing of protein and presentation of the epitope / stimulation of clone 3C8 ([4]; EBV LAU 149 as APC, 12 hrs incubation with soluble recombinant protein): efficiently process
- stimulation of clone 3C8 ([4]; EBV cells unable to present the peptide as APC): not significantly stimulated
- presentation of the epitope to specific CD4+ T cells ([4]; LAU 672 autologous dendritic cells (DC) as APC): Efficient presentation
- recognition of the CD8^+ T cell epitope SSX-2 41-49 after processing of exogenous protein [5]: did not result in recognition

Reference: patent publication US9200047B2, “SSX-2 peptides presented by HLA class II molecules” (Ludwig Institute for Cancer Research, Ltd., priority 2003, dated 2015)
